According to the supplement of paper PMC10331698:
± gives the standard deviation of the averaged measurements.

Legend:
Assay in all cases: level (log10 ratio to DMSO vehicle control); higher = higher biomarker level / cell amount than vehicle control
Conditions in all cases: in DMSO
[1] = compound: O=C(O)C(F)(F)OC(F)(F)C(F)(F)OC(F)(F)C(F)(F)C(F)(F)C(F)(F)F [Perfluoro-3,6-dioxadecanoic acid]
Description: (§1)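 BioMAP Diversity Plus panel of 12 human primary cell co-culture systems (3C, 4H, LPS, SAg, BT, BF4T, BE3C, CASM3C, HDF3CGF, KF3CT, MyoF, Mphg). Compounds were added 1 h before stimulation and left for 24 h (MyoF 48 h; BT 72 h for soluble read-outs or 6 d for IgG). Biomarkers were read by ELISA, cytotoxicity by SRB, PBMC viability and proliferation by Alamar Blue. Each well value was divided by the mean of 8 DMSO control wells on the same plate and log10 transformed; duplicate blinded samples were tested at 4 concentrations.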

[2] = compound: O=C(O)C(F)(F)C(F)(F)C(F)(F)C(F)(F)C(F)(F)C(F)(F)C(F)(F)C(F)(F)C(F)(F)C(F)(F)C(F)(F)C(F)(F)F [Perfluorotridecanoic acid]
Description: as §1

Azathioprine = compound: Cn1cnc([N+](=O)[O-])c1Sc1ncnc2[nH]cnc12 [Azathioprine]
Description: as §1

[3] = compound: O=C(O)C(F)(F)C(F)(F)C(F)(F)C(F)(F)C(F)(F)C(F)(F)C(F)(F)C(F)(F)C(F)(F)C(F)(F)C(F)(F)C(F)(F)C(F)(F)F [Perfluorotetradecanoic acid]
Description: as §1

Perfluorooctanamidine = compound: N=C(N)C(F)(F)C(F)(F)C(F)(F)C(F)(F)C(F)(F)C(F)(F)C(F)(F)F [Perfluorooctanamidine]
Description: as §1

[4] = compound: O=S(=O)(O)C(F)(F)C(F)(F)C(F)(F)C(F)(F)F [Perfluorobutanesulfonic acid]
Description: as §1

Row | Test System | level (log10) ([1]; 6700 nM) | level (log10) ([1]; 20000 nM) | level (log10) ([1]; 60000 nM) | level (log10) ([2]; 1500 nM) | level (log10) ([2]; 4400 nM) | level (log10) ([2]; 13000 nM) | level (log10) ([2]; 40000 nM) | level (log10) (Azathioprine; 1400 nM) | level (log10) (Azathioprine; 4200 nM) | level (log10) (Azathioprine; 13000 nM) | level (log10) (Azathioprine; 38000 nM) | level (log10) ([3]; 6700 nM) | level (log10) ([3]; 20000 nM) | level (log10) (Perfluorooctanamidine; 6700 nM) | level (log10) (Perfluorooctanamidine; 20000 nM) | level (log10) (Perfluorooctanamidine; 60000 nM) | level (log10) ([4]; 6700 nM) | level (log10) ([4]; 20000 nM) | level (log10) ([4]; 60000 nM)
1 | MyoF:Decorin | 0.0005 ± 0.0021 | 0.023 ± 0.014 | -0.021 ± 0.027 | 0.046 ± 0.05 | 0.06 ± 0.035 | 0.047 ± 0.047 | 0.0365 ± 0.039 | -0.007 ± 0.024 | -0.009 ± 0.023 | -0.0165 ± 0.015 | -0.013 ± 0.018 | 0.033 ± 0.027 | 0.0515 ± 0.026 | 0.004 ± 0.0099 | 0.0055 ± 0.013 | 0.07 | 0.0315 ± 0.012 | 0.03 ± 0.016 | 0.083 ± 0.013
2 | KF3CT:CXCL9/MIG | -0.0095 ± 0.0064 | -0.002 ± 0.0028 | -0.005 ± 0.0085 | -0.002 ± 0.0071 | -0.0015 ± 0.005 | -0.0035 ± 0.0064 | -0.0685 ± 0.079 | -0.0015 ± 0.00071 | -0.008 ± 0.0014 | -0.005 ± 0.0099 | 0.0205 ± 0.015 | -0.0065 ± 0.016 | 0.0055 ± 0.00071 | -0.0015 ± 0.011 | -0.0005 ± 0.0092 | 0.015 | 0.0185 ± 0.029 | 0.021 ± 0.017 | 0.0345 ± 0.0078
3 | MyoF:alpha-SM Actin | -0.0155 ± 0.039 | -0.0235 ± 0.018 | -0.05 ± 0.014 | 0.038 ± 0.067 | 0.041 ± 0.11 | 0.023 ± 0.086 | 0.0055 ± 0.09 | 0.037 ± 0.095 | 0.039 ± 0.071 | 0.002 ± 0.078 | -0.0365 ± 0.1 | -0.008 | -0.032 ± 0.0085 | 0.0015 ± 0.054 | -0.009 ± 0.042 | 0.066 | -0.016 ± 0.0099 | -0.0265 ± 0.0078 | -0.0195 ± 0.005
4 | KF3CT:CXCL8/IL-8 | -0.019 ± 0.011 | -0.0145 ± 0.00071 | -0.103 ± 0.014 | -0.0035 ± 0.04 | -0.009 ± 0.037 | -0.006 ± 0.033 | -0.0315 ± 0.06 | -0.0045 ± 0.015 | -0.0225 ± 0.025 | -0.0545 ± 0.019 | -0.0335 ± 0.016 | 0.0005 ± 0.013 | 0.0245 ± 0.025 | 0.0135 ± 0.021 | 0.0305 ± 0.018 | 0.043 | -0.031 ± 0.02 | -0.002 ± 0.0042 | 0.004 ± 0.0071
5 | lMphg:sIL-10 | -0.023 ± 0.024 | -0.042 ± 0.023 | -0.561 ± 0.13 | -0.044 ± 0.0057 | -0.039 ± 0.0042 | -0.022 ± 0.013 | -0.044 ± 0.02 | 0.0005 ± 0.12 | -0.077 ± 0.047 | -0.117 ± 0.059 | -0.311 ± 0.081 | -0.032 ± 0.0014 | -0.0315 ± 0.033 | -0.051 ± 0.018 | -0.118 ± 0.0057 | -0.121 | 0.043 ± 0.099 | -0.0475 ± 0.032 | 0.0065 ± 0.049
6 | CASM3C:HLA-DR | 0.002 ± 0.03 | 0.0015 ± 0.011 | 0.0245 ± 0.026 | 0.0015 ± 0.0092 | -0.0285 ± 0.035 | -0.0385 ± 0.013 | -0.085 ± 0.062 | -0.0165 ± 0.0021 | -0.0115 ± 0.026 | -0.0405 ± 0.011 | -0.055 ± 0.031 | -0.0195 ± 0.0078 | -0.022 ± 0.073 | -0.0335 ± 0.016 | -0.0655 ± 0.011 | -0.022 | -0.0085 ± 0.0035 | -0.0075 ± 0.00071 | -0.0025 ± 0.0078
7 | BE3C:MMP-9 | -0.005 ± 0.0099 | 0.007 ± 0.031 | -0.0195 ± 0.0021 | -0.0105 ± 0.0035 | 0.0005 ± 0.023 | -0.0065 ± 0.0035 | -0.0235 ± 0.00071 | 0.0075 ± 0.046 | 0.0285 ± 0.04 | -0.0135 ± 0.03 | -0.0485 ± 0.028 | -0.033 ± 0.071 | -0.04 ± 0.065 | -0.0115 ± 0.005 | -0.015 ± 0.023 | -0.001 | -0.0125 ± 0.016 | -0.0205 ± 0.0035 | -0.0315 ± 0.0092
8 | BE3C:tPA | -0.0345 ± 0.029 | -0.09 ± 0.04 | -0.156 ± 0.018 | 0.096 ± 0.011 | 0.115 ± 0.0021 | 0.0955 ± 0.032 | 0.03 ± 0.0071 | -0.005 ± 0.078 | -0.0285 ± 0.083 | -0.108 ± 0.083 | -0.236 ± 0.079 | 0.04 ± 0.075 | 0.0035 ± 0.06 | 0 ± 0.0028 | -0.006 ± 0.0014 | 0.019 | 0.0155 ± 0.022 | -0.0135 ± 0.0078 | 0 ± 0.025
9 | HDF3CGF:PAI-I | 0.0225 ± 0.013 | 0.0375 ± 0.0021 | 0.045 ± 0.024 | 0.063 | 0.0515 ± 0.023 | 0.0505 ± 0.0064 | -0.022 ± 0.027 | 0.022 ± 0.054 | -0.015 ± 0.037 | -0.0545 ± 0.04 | -0.198 ± 0.021 | 0.0475 ± 0.023 | 0.0405 ± 0.021 | -0.0225 ± 0.013 | 0.02 ± 0.014 | -0.233 | -0.017 ± 0.034 | 0.007 ± 0.045 | -0.0075 ± 0.03
10 | HDF3CGF:TIMP-1 | -0.0085 ± 0.00071 | 0.006 ± 0.11 | 0.0755 ± 0.083 | 0.027 ± 0.028 | -0.0075 ± 0.044 | -0.023 ± 0.069 | -0.04 ± 0.051 | -0.0195 ± 0.005 | -0.0115 ± 0.033 | -0.018 ± 0.024 | -0.0695 ± 0.06 | 0.014 ± 0.037 | -0.0385 ± 0.11 | 0.013 ± 0.042 | 0.018 ± 0.05 | 0.092 | -0.032 ± 0.064 | 0.0125 ± 0.0078 | 0.0195 ± 0.011
11 | KF3CT:TIMP-2 | -0.038 ± 0.0099 | -0.0255 ± 0.043 | -0.03 ± 0.024 | 0.0125 ± 0.016 | 0.028 ± 0.013 | 0.0165 ± 0.022 | 0.0295 ± 0.015 | -0.041 ± 0.013 | 0 ± 0.021 | 0.0385 ± 0.0078 | 0.0585 ± 0.011 | 0.0455 ± 0.032 | 0.0065 ± 0.012 | 0.01 ± 0.0014 | 0 ± 0.02 | 0.035 | -0.0265 ± 0.005 | -0.0045 ± 0.029 | -0.0135 ± 0.022
12 | MyoF:CXCL8/IL-8 | 0.011 ± 0.011 | 0.0335 ± 0.013 | 0.0145 ± 0.0021 | -0.01 ± 0.023 | -0.0295 ± 0.0078 | -0.0275 ± 0.0021 | -0.025 ± 0.0042 | 0.009 ± 0.014 | 0.023 ± 0.017 | 0.027 ± 0.02 | 0.0395 ± 0.015 | 0.0095 ± 0.0078 | 0.017 ± 0.0071 | -0.003 ± 0.041 | 0.03 ± 0.0099 | 0.043 | 0.007 ± 0.042 | 0.0425 ± 0.021 | 0.0665 ± 0.0064
13 | MyoF:PAI-I | 0.001 ± 0.0014 | -0.0005 ± 0.0092 | -0.015 ± 0.0057 | 0.013 ± 0.013 | -0.002 | -0.0035 ± 0.00071 | 0.012 ± 0.0085 | -0.004 ± 0.0085 | -0.0025 ± 0.0064 | -0.0015 ± 0.005 | 0 ± 0.0085 | 0.0115 ± 0.0064 | 0.006 | 0.0015 ± 0.0064 | -0.0075 ± 0.013 | 0.021 | -0.011 ± 0.013 | 0.0065 ± 0.0078 | 0.0005 ± 0.0064
14 | CASM3C:LDLR | 0.0015 ± 0.022 | -0.016 ± 0.0028 | -0.0065 ± 0.023 | -0.001 ± 0.013 | 0.013 ± 0.02 | 0.0105 ± 0.025 | -0.021 ± 0.0028 | -0.0055 ± 0.018 | -0.01 ± 0.0085 | -0.024 ± 0.023 | -0.034 ± 0.011 | -0.0135 ± 0.013 | -0.028 ± 0.014 | 0.012 ± 0.013 | 0.036 ± 0.0085 | 0.108 | -0.0305 ± 0.0035 | -0.0255 ± 0.025 | -0.0345 ± 0.053
15 | 3C:CD142/Tissue Factor | -0.0245 ± 0.059 | 0.0095 ± 0.015 | -0.074 ± 0.024 | 0.034 ± 0.023 | 0.024 ± 0.042 | 0.0425 ± 0.025 | 0.0615 ± 0.00071 | 0.02 ± 0.024 | 0.0255 ± 0.046 | 0.042 ± 0.051 | 0.042 ± 0.02 | 0.0275 ± 0.0078 | 0.0665 ± 0.018 | -0.02 ± 0.018 | -0.0105 ± 0.012 | -0.014 | 0.003 ± 0.0028 | 0.001 ± 0.0071 | -0.005 ± 0.038
